Read-outs that look alike come from different tables or passages of the source.
Assays:
[1] = test system: indomethacin induced ulcer; experiment: antiulcer activity: suppression of indomethacin induced ulcer in mice; type: in vivo, ddY series male mice; conditions: for inhibition in vivo at 100 mg/kg: Mus musculus, po, read-out: Suppression rate of indomethacin induced ulcer
Description: The antiulcer activity of the compounds of this invention was determined by the following method. Four-week-old ddY series male mice were used as the test animals after they were fasted for 24 hours. Each test compound suspended in a 1% gum arabic solution was administerd to the stomach of each mouse at a dose of 100 mg/kg, and then, after 30 minutes, 20 mg/kg of indomethacin was administered orally. Four hours after the administration of indomethacin, the stomach of mouse was extirpated and the length of ulcers was measured. Then, the ulcer index was determined by the total sum of the scores as calculated in Table 1. | TABLE 1 |Length of ulcer | 0.5 mm< 1 mm< 2 mm< 3 mm< |Score 0.5 1 2 3 The mean ulcer index of each group was calculated and the suppression rate against the control group in terms of difference in the mean ulcer index was determined.

reversion test = type: cell-based
[2] = acute toxicity, LD50 (P.O.); conditions: in vivo, po
[3] = background, cited from earlier work
[4] = 100 mg/kg, p.o., ddY male mice, indomethacin 20 mg/kg orally 30 minutes later, ulcers measured 4 hours after indomethacin

Row | SMILES | inhibition in vivo at 100 mg/kg [1, 4] | further results
1 | O=c1c2ccccc2nc(SCc2nc3ccccc3[nH]2)n1-c1ccccc1 [2-(2-Benzimidazolylmethylthio)-3-phenyl-4(3H)-quinazolinone] | 81% | –
2 | CCN(CC)CCSc1nc2ccccc2c(=O)n1-c1ccccc1 [2-(2-Diethylaminoethylthio)-3-phenyl-4(3H)-quinazolinone] | 45% | –
3 | COc1ccc(-n2c(SCc3nccc(OC)c3C)nc3ccc(C)cc3c2=O)cc1 [2-[(4-Methoxy-3-methylpyridin-2-yl)methylthio]-3-(4-methoxyphenyl)-6-methyl-4(3H)-quinazolinone] | 49% | –
4 | COc1cc(CSc2nc3ccc(C)cc3c(=O)n2-c2ccccc2)ncc1C [2[(4-Methoxy-5-methylpyridin-2-yl)methylthio]-6-methyl-3-phenyl-4(3H)-quinazolinone] | 44% | –
5 | CCn1c(SCc2ccccn2)nc2ccccc2c1=O [3-Ethyl-2-(2-pyridylmethylthio)-4(3H)-quinazolinone] | 96% | reversion test (reversion test): negative; LD50 [2]: > 3000 mg/kg
6 | O=c1c2ccccc2nc(SCc2ccccn2)n1CCc1ccccc1 [3-Phenethyl-2-(2-pyridylmethylthio)-4(3H)-quinazolinone] | 60% | –
7 | O=c1c2ccccc2nc(SCc2cccnc2)n1-c1ccccc1 [3-Phenyl-2-(3-pyridylmethylthio)-4(3H)-quinazolinone] | – | Suppression rate of indomethacin induced ulcer [1, 4]: 63
8 | Cc1ccc2nc(SCc3ccccn3)n(-c3ccccc3)c(=O)c2c1 [6-Methyl-3-phenyl-2-(2-pyridylmethylthio)-4(3H)-quinazolinone] | 38% | –
9 | CN/C(=N/CCSCc1nc[nH]c1C)NC#N [Cimetidine] | – | side effects ([3]; known): gynecomatism; recurrence of ulcer after suspension of administration ([3]; reported): numbers of cases are reported about recurrence of ulcer; inhibition in vivo at 100 mg/kg ([1]; 4 h): 40%

Source: patent US5008266A, “4(3H)-quinazolinone derivatives and pharmaceutical compositions” (Nisshin Flour Milling Co., Ltd., priority 1987, dated 1991)
